Test results: patent US7186879B2, “Screening systems and methods for identifying modulators of xenobiotic metabolism” (Baylor College of Medicine, priority 2001, dated 2007)
“Also recorded” adds a separate entry of the source.

Key:
CAR [1] = molecular target: T1, CAR (Mus musculus, UniProt O35627, M138L); experiment: Hepatoprotection after APAP (serum ALT, histology); details: for protective effect, androstanol compared with N-acetylcysteine: wild-type mice, one and three hours after APAP 500 mg/kg, androstanol 100 mg/kg, N-acetylcysteine 1 g/kg
T1 sequence (O35627 1-358 M138L): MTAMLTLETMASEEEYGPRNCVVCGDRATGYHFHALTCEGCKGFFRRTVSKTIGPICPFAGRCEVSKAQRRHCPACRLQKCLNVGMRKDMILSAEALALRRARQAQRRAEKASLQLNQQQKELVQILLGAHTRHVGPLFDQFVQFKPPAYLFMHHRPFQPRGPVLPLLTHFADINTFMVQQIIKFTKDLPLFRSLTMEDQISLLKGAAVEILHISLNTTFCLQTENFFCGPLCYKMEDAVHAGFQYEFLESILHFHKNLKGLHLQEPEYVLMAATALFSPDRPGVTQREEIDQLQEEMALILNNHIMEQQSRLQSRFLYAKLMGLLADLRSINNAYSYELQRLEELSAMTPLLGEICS
Procedure: (§1) Wild-type mice (n=3 per group) were administered a 500 mg/kg dose of APAP by intraperitoneal injection.
(§2) For comparison, N-acetylcysteine (1 g/kg, purchased from Sigma and dissolved in PBS) was administered intraperitoneally to other mice.

[2] = system: wild-type and CAR null mice; details: mouse, in vivo
Source text: To rule out the possibility that the CAR knockout animals are somehow resistant to NAPQI, the metabolite was directly injected into the livers of both wild-type and CAR null mice, and serum ALT levels were increased 5 to 10 fold in both. Thus, that both increased NAPQI production and GSH depletion may contribute to xenobiotic induced APAP toxicity.

murine CAR receptor [3] = molecular target: T2, murine CAR receptor (Mus musculus, UniProt O35627); experiment: Ligand activity on murine CAR receptor
T2 sequence (O35627 1-358 M138L): T1 sequence (O35627 1-358 M138L)

CAR [4] = experiment: Hepatoprotection after APAP (serum ALT, histology)
Procedure: as §1, §2

CAR [5] = molecular target: T3, CAR (Mus musculus, UniProt O35627); experiment: Hepatoprotection after APAP (serum ALT, histology)
T3 sequence (O35627 1-358 M138L): T1 sequence (O35627 1-358 M138L)
Procedure: as §1, §2

murine CAR receptor [6] = molecular target: T4, murine CAR receptor (Mus musculus, UniProt O35627, M138L); details: cited from earlier work
T4 sequence (O35627 1-358 M138L): T1 sequence (O35627 1-358 M138L)

human CAR [7] = molecular target: T5, human CAR (Homo sapiens, UniProt Q14994); details: cited from earlier work
T5 sequence (Q14994 1-348 isoform Q14994-2): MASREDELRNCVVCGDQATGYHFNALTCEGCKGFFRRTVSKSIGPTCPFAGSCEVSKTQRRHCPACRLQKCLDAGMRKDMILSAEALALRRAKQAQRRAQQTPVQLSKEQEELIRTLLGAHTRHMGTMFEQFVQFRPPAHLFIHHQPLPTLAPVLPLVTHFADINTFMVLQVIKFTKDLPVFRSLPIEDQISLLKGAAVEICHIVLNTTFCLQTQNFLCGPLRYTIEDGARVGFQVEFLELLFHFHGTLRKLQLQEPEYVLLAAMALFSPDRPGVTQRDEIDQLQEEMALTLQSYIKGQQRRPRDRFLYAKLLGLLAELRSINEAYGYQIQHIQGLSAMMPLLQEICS

human CAR [8] = molecular target: T5, human CAR; experiment: Northern blot of gene induction in CAR humanized mice; details: 500 mg/kg
Procedure: CAR humanized mice (n=3) were treated with 500 mg/kg APAP or vehicle. After two hours, total liver RNA was prepared and subjected to Northern blot analysis with indicated probes.

[9] = system: CYP2E1, CYP1A2, CYP3A11, GSTPi; experiment: Northern blot of APAP metabolizing genes in liver of wild-type and CAR null mice; details: mouse, in vivo, 500 mg/kg, 2 h
Procedure: CAR (+/+) or CAR (−/−) animals pretreated with phenobarbital (PB), TCPOBOP (TC), or vehicle alone were administered a 250 mg/kg dose of APAP by intraperitoneal injection (n=5–7 per treatment group) (FIG. 11A). […] Liver sections from different treatments were examined by histological staining (FIG. 11B). Liver samples from all treated animals were analyzed but only representative histology is presented. […] CAR (+/+) or CAR (−/−) animals were pretreated with PB, TCPOBOP (TC), or vehicle alone for three days (FIG. 11C). […] Liver samples treated as indicated were collected two hours after APAP and GSH levels were measured (n=5–7) (FIG. 11D).
CAR (+/+) and CAR (−/−) animals were given 250 mg/kg, 500 mg/kg, or 800 mg/kg doses of APAP, respectively (FIG. 12A). […] Total liver RNA was prepared from 500 mg/kg APAP treated CAR (+/+) and CAR (−/−) livers at 0 and 2 hours as indicated. […] The same blot was stripped and re-probed with β-actin as loading control.
For histologic examination of the treated mice, the left lobe of the livers was removed and immediately fixed in 4% formaldehyde-PBS solution, embedded in paraffin, sectioned at 5 μm, and stained with hematoxylin and eosin. Samples were examined under a light microscope. For RNA studies, total RNA was extracted using TRIzol Reagent (Invitrogen Life Technologies, Carlsbad, Calif.) according to the manufacture's instruction. Equivalent amount of RNA from 3–5 mice were pooled and 10 μg of each sample was subjected to northern blot analysis. […] Hepatic non-protein thiol was measured as an indication of hepatic GSH content. Mice were sacrificed two hours after intraperitoneal injection with APAP. […] Supernatant (0.5 ml) was mixed with 1.5 ml 0.1 mM Ellman's reagent [5,5′-dithio-bis(2-nitrobenzoic acid)] […] Absorbance was read at 412 nm using GSH solutions as quantitative standards.

PXR = molecular target: T6, PXR (Mus musculus, UniProt O54915); details: cited from earlier work
T6 sequence (O54915 1-431): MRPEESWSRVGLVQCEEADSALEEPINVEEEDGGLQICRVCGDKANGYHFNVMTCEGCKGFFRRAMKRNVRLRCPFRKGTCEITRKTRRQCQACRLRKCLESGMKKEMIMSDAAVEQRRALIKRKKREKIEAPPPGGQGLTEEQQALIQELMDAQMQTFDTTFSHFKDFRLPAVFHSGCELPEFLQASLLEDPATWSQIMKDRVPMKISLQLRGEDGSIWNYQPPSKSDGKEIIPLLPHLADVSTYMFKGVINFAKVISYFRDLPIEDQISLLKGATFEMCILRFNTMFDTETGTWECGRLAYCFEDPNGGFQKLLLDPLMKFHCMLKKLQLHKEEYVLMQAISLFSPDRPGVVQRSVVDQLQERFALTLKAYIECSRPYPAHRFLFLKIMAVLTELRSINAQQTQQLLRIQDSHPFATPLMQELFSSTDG

[10] = system: wild-type and CAR knockout mice; experiment: APAP toxicity after pretreatment with inducers (serum ALT, histology); type: in vivo, mouse; details: mouse, in vivo
Procedure: CAR (+/+) or CAR (−/−) animals pretreated with phenobarbital (PB), TCPOBOP (TC), or vehicle alone were administered a 250 mg/kg dose of APAP by intraperitoneal injection (n=5–7 per treatment group) (FIG. 11A). Serum was collected and alanine aminotransferase (ALT) levels were measured after 24 hours. Liver sections from different treatments were examined by histological staining (FIG. 11B). Liver samples from all treated animals were analyzed but only representative histology is presented. […] CAR (+/+) or CAR (−/−) animals were pretreated with PB, TCPOBOP (TC), or vehicle alone for three days (FIG. 11C). […] Liver samples treated as indicated were collected two hours after APAP and GSH levels were measured (n=5–7) (FIG. 11D).
The effect of PB and the potent CAR agonist TCPOBOP on APAP toxicity was examined in wild-type and CAR knockout mice. Both strains of mice were treated with inducers or the vehicle control, followed by 250 mg/kg APAP. For these studies, mice were kept in a pathogen-free animal facility under standard 12 hour light/12 hour dark cycle and fed standard rodent chow and water ad libitum. At least five mice between 8 and 10 weeks old were used in each treatment group. For 3-day PB (100 mg/kg) treatment, mice were injected intraperitoneally three times, one injection per day. TCPOBOP (3 mg/kg) and/or APAP were injected intraperitoneally. Phenobarbital and TCPOBOP were suspended or dissolved in corn oil, and APAP was dissolved in basic PBS (pH=11). PB and APAP were purchased from Sigma (St Louis, Mo.); TCPOBOP was a gift from Dr. Stephen Safe.
For histologic examination of the treated mice, the left lobe of the livers was removed and immediately fixed in 4% formaldehyde-PBS solution, embedded in paraffin, sectioned at 5 μm, and stained with hematoxylin and eosin. Samples were examined under a light microscope. For RNA studies, total RNA was extracted using TRIzol Reagent (Invitrogen Life Technologies, Carlsbad, Calif.) according to the manufacture's instruction. Equivalent amount of RNA from 3–5 mice were pooled and 10 μg of each sample was subjected to northern blot analysis. […] Preparation of probes for CYP2B10 and CYP3A11 were described as previously (Wei et al., Nature 407:920–923, 2000 and Zelko et al., Mol Cell Biol 21:2838–2846, 2001). PCR primers used were: CYP1A2: 5′-[…]-3′ (SEQ ID NO: 19) and 5′-[…]-3′ (SEQ ID NO: 20), CYP2E1: 5′-[…]-3′ (SEQ ID NO: 21) and 5′-[…]-3′ (SEQ ID NO: 22), GSTPi: 5′-[…]-3′ (SEQ ID NO: 23) and 5′-[…]-3′ (SEQ ID NO: 24). Hepatic non-protein thiol was measured as an indication of hepatic GSH content. Mice were sacrificed two hours after intraperitoneal injection with APAP. Livers were removed and immediately homogenized in four volumes of 5% trichloroacetic acid and then centrifuged at 1,600×g for 15 minutes. Supernatant (0.5 ml) was mixed with 1.5 ml 0.1 mM Ellman's reagent [5,5′-dithio-bis(2-nitrobenzoic acid)] (Sigma, St Louis, Mo.) and allowed to stand at room temperature for 15 minutes. Absorbance was read at 412 nm using GSH solutions as quantitative standards.

[11] = CAR humanized mice, two hours, densitometry

**Q.** With `CC(=O)N[C@@H](CS)C(=O)O` [N-acetylcysteine] as the compound, how does the “protective effect, androstanol compared with N-acetylcysteine” value (CAR [1]) read?
**A.** very similar

**Q.** Which “increase of serum ALT levels” value [2] does the source give for `CC(=O)N=C1C=CC(=O)C=C1` [NAPQI, N-acetyl-p-benzoquinone imine] here?
**A.** 5-10 fold

**Q.** What about the CAR agonist function (murine CAR receptor [3]) of the same compound?
**A.** neither APAP nor NAPQI functions as a CAR agonist

**Q.** For `C[C@@]12CCC[C@H]1[C@@H]1CC[C@H]3C[C@H](O)CC[C@]3(C)[C@H]1CC2` [androstanol, 5α-androstan-3α-ol], which “hepatotoxicity, treatment after APAP” value (CAR [4]; CAR knockout animals, APAP 500 mg/kg, androstanol 100 mg/kg i.p.) is on record?
**A.** did not block toxicity

**Q.** What about the “serum ALT, androstanol and APAP versus APAP alone” value (CAR [4]; CAR −/− animals) of the same compound?
**A.** somewhat higher

**Q.** What about the “ALT levels, CAR (+/+) versus CAR (−/−) animals” value (CAR [4]; androstanol at one and three hours after APAP 500 mg/kg) of the same compound?
**A.** significantly lower ALT levels

**Q.** What about the “protective effect, treatment five hours after APAP” value (CAR [1]; relative to wild-type control) of the same compound?
**A.** no protective effect

**Q.** What about the “protective effect, androstanol compared with N-acetylcysteine” value (CAR [1]) of the same compound?
**A.** very similar

**Q.** And the “APAP toxicity after pretreatment” value (CAR [5]; wild-type mice)?
**A.** decreases APAP toxicity

**Q.** And the “serum ALT, treatment three hours after APAP” value (CAR [5]; wild-type mice relative to untreated wild-type)?
**A.** somewhat lower serum ALT levels

**Q.** What about the “hepatotoxicity, treatment one hour after APAP” value (CAR [5]; wild-type mice, APAP 500 mg/kg, androstanol 100 mg/kg i.p.) of the same compound?
**A.** blocked hepatotoxicity; also recorded: nearly complete absence of hepatotoxicity

**Q.** And the “activity on murine CAR receptor” value (murine CAR receptor [6])?
**A.** can be blocked

**Q.** And the “activity on human CAR receptor” value (human CAR [7])?
**A.** not human CAR

**Q.** With `CC(=O)Nc1ccc(O)cc1` [APAP, N-acetyl-p-aminophenol] as the compound, how does the “activation of human CAR” value (human CAR [8]; CAR humanized mice) read?
**A.** human CAR is activated by APAP

**Q.** And the “induction of CYP1A2 mRNA” value (human CAR [8]; [11])?
**A.** 1.8 fold

**Q.** What about the “induction of CYP3A11 mRNA” value (human CAR [8]; [11]) of the same compound?
**A.** 2.4 fold

**Q.** And the “induction of GSTPi mRNA” value (human CAR [8]; [11])?
**A.** 1.8 fold

**Q.** And the “expression of CYP1A2, CYP3A11 and GSTPi” value (human CAR [8]; humanized mice)?
**A.** increased expression

**Q.** And the “induction of CYP1A2 mRNA” value [9]?
**A.** approximately 2.8 fold

**Q.** And the “induction of CYP3A11 mRNA” value [9]?
**A.** ~4.4 fold

**Q.** And the “induction of GSTPi mRNA” value [9]?
**A.** ~3.9 fold

**Q.** And the CAR agonist function (murine CAR receptor [3])?
**A.** neither APAP nor NAPQI functions as a CAR agonist

**Q.** What does the source list for `CC(=O)[C@H]1[C@H](C#N)C[C@H]2[C@@H]3CC=C4C[C@@H](O)CC[C@]4(C)[C@H]3CC[C@@]21C` [PCN, 5-pregnen-3b-ol-20-one-16a-carbonitrile]?
**A.** PXR agonism (PXR): strong PXR agonist; sensitivity to APAP [10]: increase in sensitivity to APAP comparable to that observed with TCPOBOP pretreatment

**Q.** For `Clc1ccccc1C(c1ccccc1)(c1ccccc1)n1ccnc1` [clotrimazole], which “activity on human CAR receptor” value (human CAR [7]) is on record?
**A.** inverse agonist of human
